The values that follow come from paper PMC3172300, “Modulation of Catalytic Activity in Multi-Domain Protein Tyrosine Phosphatases” (PLoS ONE, 2011).

Like-named read-outs stand apart in the source and are kept apart here. Square brackets hold non-standard residues; d marks the D form. Ends that are not written are not given here. Peptide text beside a SMILES is read from it. pY = N[C@@H](Cc1ccc(OP(=O)(O)O)cc1)C(=O)O

One assay has as its target T1, DLAR D1D2 (Drosophila melanogaster, UniProt P16621).
T1 construct: DLAR 1448-2029; His tag (pET-15b or pET-22b); made in house; host or cells: E. coli BL21(DE3)
T1 sequence (P16621 1448-2029): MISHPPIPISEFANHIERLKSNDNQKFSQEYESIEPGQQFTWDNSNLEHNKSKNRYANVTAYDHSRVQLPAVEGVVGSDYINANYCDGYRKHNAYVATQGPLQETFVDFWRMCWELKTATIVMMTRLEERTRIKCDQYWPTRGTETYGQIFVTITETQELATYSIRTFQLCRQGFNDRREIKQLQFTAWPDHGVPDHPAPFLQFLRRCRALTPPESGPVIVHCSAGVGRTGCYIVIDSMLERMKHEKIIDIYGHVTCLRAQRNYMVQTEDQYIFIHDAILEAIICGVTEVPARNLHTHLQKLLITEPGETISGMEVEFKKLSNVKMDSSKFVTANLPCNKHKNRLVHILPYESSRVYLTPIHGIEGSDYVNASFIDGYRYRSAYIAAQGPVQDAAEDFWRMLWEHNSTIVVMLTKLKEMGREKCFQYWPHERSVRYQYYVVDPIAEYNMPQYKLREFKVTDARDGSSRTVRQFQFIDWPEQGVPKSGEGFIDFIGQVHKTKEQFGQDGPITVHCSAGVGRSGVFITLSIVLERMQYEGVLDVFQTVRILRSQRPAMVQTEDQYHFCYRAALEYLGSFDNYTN
Put plainly: Dephosphorylation of phosphotyrosine peptides (malachite green), DLAR D1D2. It counts as biochemical. Particulars: for Km / Vmax / Kcat / Kcat/Km: 0.01 µM protein; for Km / Kcat / Kcat/Km: 25 mM citrate pH 6.0, 15 min at 25°C, malachite green; for Vmax: 25 mM citrate buffer pH 6.0, 100 mM NaCl, 2 mM DTT, 15 min at 25°C, Biomol Green, 650 nm, Michaelis-Menten fit; for substrate preference: order of peptide substrates, DLAR D1D2. From the text: (§1) Substrates of PTPs characterized thus far include the activation loop segments of various kinases and regulatory loops of other signaling proteins. Suitably designed peptide substrates mimic the physiologically relevant substrates of PTPs. In the present study, peptide substrates were designed for DLAR for which more information was available on its interacting partners. […] The five peptides were chosen based on their distinct charge distributions around the central phosphotyrosine residue. The phosphorylated as well as non-phosphorylated peptides were obtained from GL Bioscience, China. The peptides were >95% pure and were used after a single round of desalting using a Sephadex G25 column (GE Healthcare). The concentration of the peptide samples for biochemical studies was ascertained by UV absorption at 268 nm for the pY residue.
(§2) Phosphatase activity of the recombinant PTP domains was determined by using para-Nitrophenylphosphate (pNPP), a small molecule generic substrate, as well as phosphotyrosine containing peptides. The pNPP assay was performed as reported previously, with a modification in the buffer composition (25 mM Citrate, Glycine and HEPES (CGH), pH 6.5, 100 mM NaCl and 2 mM DTT). Phosphatase activity with the phosphotyrosine peptides was ascertained by the malachite green reaction as described for PTPs previously. Briefly, the reaction mixture comprised of 0.01 µM protein incubated with increasing concentrations of different peptides in 25 mM citrate buffer pH 6.0, 100 mM NaCl and 2 mM DTT for 15 min at 25°C. The reaction was stopped by the addition of the Biomol Green reagent (Enzo Life Sciences) and the colour developed after 20 min was quantified at 650 nm. For all the assays, kinetic constants for the steady state catalysis were obtained by fitting the reaction curves to the Michaelis-Menten equation using the nonlinear regression module of Sigma plot software (Systat Software, Inc.).

The next assay deals with T2, PTP99A D1 (Drosophila melanogaster, UniProt P35832).
T2 sequence (P35832 450-756): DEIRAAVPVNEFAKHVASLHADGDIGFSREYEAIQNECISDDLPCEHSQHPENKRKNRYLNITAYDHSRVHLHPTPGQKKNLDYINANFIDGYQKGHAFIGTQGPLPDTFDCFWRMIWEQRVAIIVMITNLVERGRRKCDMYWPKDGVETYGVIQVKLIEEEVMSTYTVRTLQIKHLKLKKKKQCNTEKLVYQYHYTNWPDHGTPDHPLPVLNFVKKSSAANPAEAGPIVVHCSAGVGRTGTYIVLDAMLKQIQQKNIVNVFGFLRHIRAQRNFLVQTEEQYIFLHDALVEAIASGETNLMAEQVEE
Put plainly: Dephosphorylation of phosphotyrosine peptides (malachite green), PTP99A D1. The following applies: for Vmax / Kcat / Kcat/Km / Km: 0.01 µM protein; for Vmax: 25 mM citrate buffer pH 6.0, 100 mM NaCl, 2 mM DTT, 15 min at 25°C, Biomol Green, 650 nm, Michaelis-Menten fit; for Kcat / Kcat/Km / Km: 25 mM citrate pH 6.0, 15 min at 25°C, malachite green; for peptide preference: order of peptide substrates.
Excerpt: as §1, §2

The target in another assay is T3, PTP99A D2 (Drosophila melanogaster, UniProt P35832).
T3 sequence (P35832 740-1050): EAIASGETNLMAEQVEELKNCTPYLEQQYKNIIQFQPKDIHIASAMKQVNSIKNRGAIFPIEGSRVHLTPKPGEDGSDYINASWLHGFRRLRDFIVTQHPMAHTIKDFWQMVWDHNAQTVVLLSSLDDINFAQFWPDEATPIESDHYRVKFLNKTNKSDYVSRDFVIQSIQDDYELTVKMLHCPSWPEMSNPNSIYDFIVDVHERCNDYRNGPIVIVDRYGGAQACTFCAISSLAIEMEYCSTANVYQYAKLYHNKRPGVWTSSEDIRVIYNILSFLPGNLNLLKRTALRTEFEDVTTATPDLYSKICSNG
Put plainly: Peptide preference of the PTP99A D2 domain from ratios of kcat/Km (D1D2 vs D1). It counts as biochemical. The following applies: order of peptide substrates, from comparison of kcat/Km of D1D2 with D1. As to the method: as §2
The difference between the most and least preferred substrate in the case of DLAR D1D2 was much less (∼16.0×10^4 sec^−1 M^−1 between Cuticle and Myospheroid peptides) when compared to DLAR D1 alone (∼130.0×10^4 sec^−1 M^−1 between Insulin Receptor and Abelson peptides). […] A more comprehensive study of this activation mechanism is being reported elsewhere.

For `CC(C)C[C@H](NC(=O)[C@H](C)NC(=O)CNC(=O)[C@H](Cc1ccc(OP(=O)(O)O)cc1)NC(=O)[C@H](CC(=O)O)NC(=O)[C@@H]1CCCN1C(=O)[C@H](CCC(=O)O)NC(=O)[C@H](C)NC(=O)[C@@H](N)[C@@H](C)O)C(=O)N[C@@H](Cc1ccc(O)cc1)C(=O)N[C@@H](CCC(=O)O)C(=O)O` [Cuticle peptide] (H-TAEPD[pY]GALYE-OH), the Km on DLAR D1D2 came out at 105 ± 12.4 µM.

Consider “CDDS[pY]FGNKC (cysteine pairing not given here) [Myospheroid peptide, phosphotyrosine peptide CDDSpYFGNKC from PeptideMine server, obtained from GL Bioscience, >95% pure]”, for which, on PTP99A D1, the Vmax stood at 2.72 ± 0.13 µmol/min/mg, the Kcat was determined as 1.81 ± 0.08 s⁻¹, the Kcat/Km is listed as 20.40 ± 0.59 x 10^2 sec^-1M^-1 and the Michaelis constant (Km) was 887 ± 102 µM. In addition, the peptide preference result on PTP99A D1 (PTP99A D1 domain) was “Abelson peptide>Cuticle peptide>Nervous fingers peptide>Myospheroid peptide>Insulin receptor peptide”. Besides, at DLAR D1D2, the Vmax was determined as 13.86 ± 0.39 µmol/min/mg, the Kcat came to 16.53 ± 0.47 s⁻¹, the Kcat/Km was 14.28 ± 0.05 x 10^4 sec^-1M^-1 and the substrate preference entry is listed as “Cuticle peptide>Insulin receptor peptide>Nervous fingers peptide>Abelson peptide>Myospheroid peptide”. Moreover, the Km at DLAR D1D2 (read-out: Km) was determined as 116 ± 8.69 µM. For the same compound, the peptide preference entry on PTP99A D2 is recorded as “Nervous fingers peptide>Abelson peptide>Cuticle peptide>Myospheroid peptide>Insulin receptor peptide”.

For “RDDT[pY]TAHAG [Abelson peptide, phosphotyrosine peptide RDDTpYTAHAG from PeptideMine server, obtained from GL Bioscience, >95% pure]”, at PTP99A D1, the Vmax is 0.83 ± 0.05 µmol/min/mg, the Kcat turned out to be 0.55 ± 0.04 s⁻¹, the Kcat/Km was 45.19 ± 0.29 x 10^2 sec^-1M^-1 and the Km was 122 ± 26.6 µM. Further, the “difference between the most and least preferred substrate (kcat/Km)” value at PTP99A D1 (PTP99A D1 domain, between Abelson peptide and Insulin Receptor peptides) was roughly 3000 s⁻¹ M⁻¹. Besides, the peptide preference result on PTP99A D1 (PTP99A D1 domain) is listed as “Abelson peptide>Cuticle peptide>Nervous fingers peptide>Myospheroid peptide>Insulin receptor peptide”. Moreover, at DLAR D1D2, the maximum rate (Vmax) is 3.39 ± 0.19 µmol/min/mg, the Kcat is 4.05 ± 0.22 s⁻¹, the Kcat/Km is recorded as 17.96 ± 0.16 x 10^4 sec^-1M^-1 and the substrate preference entry is listed as “Cuticle peptide>Insulin receptor peptide>Nervous fingers peptide>Abelson peptide>Myospheroid peptide”. The Km on DLAR D1D2 (read-out: Km) turned out to be 22.6 ± 4.88 µM. Besides, on PTP99A D2, the peptide preference result is given as “Nervous fingers peptide>Abelson peptide>Cuticle peptide>Myospheroid peptide>Insulin receptor peptide”.

Consider “VIGD[pY]VCRLCK (cysteine pairing not given here) [Nervous Fingers peptide, phosphotyrosine peptide VIGDpYVCRLCK from PeptideMine server, obtained from GL Bioscience, >95% pure]”, for which, at PTP99A D1, the maximal velocity (Vmax) turned out to be 4.42 ± 0.14 µmol/min/mg, the Kcat was found to be 2.94 ± 0.10 s⁻¹, the Kcat/Km was 21.61 ± 0.24 x 10^2 sec^-1M^-1 and the Km was determined as 1360 ± 94.7 µM. Also, the peptide preference entry on PTP99A D1 (PTP99A D1 domain) is listed as “Abelson peptide>Cuticle peptide>Nervous fingers peptide>Myospheroid peptide>Insulin receptor peptide”. For the same compound, on DLAR D1D2, the Vmax was determined as 12.41 ± 0.68 µmol/min/mg, the Kcat worked out at 14.79 ± 0.81 s⁻¹, the Kcat/Km is listed as 19.59 ± 0.11 x 10^4 sec^-1M^-1 and the substrate preference entry is “Cuticle peptide>Insulin receptor peptide>Nervous fingers peptide>Abelson peptide>Myospheroid peptide”. In addition, the Km at DLAR D1D2 (read-out: Km) came to 75.5 ± 12.5 µM. Also, at PTP99A D2, the peptide preference result was “Nervous fingers peptide>Abelson peptide>Cuticle peptide>Myospheroid peptide>Insulin receptor peptide”.

The term Km denotes the concentration of substrate that gives half-maximal velocity. By Vmax is commonly meant the rate approached at saturating substrate.
